One assay has as its system lymph node cells. As to the kind of experiment: Proliferation of lymph node cells to MOG 35-55 peptide, [3H]thymidine incorporation. The format is cell-based, C57BL/6 (B6) mice. The settings on record: 25 μg/ml MOG 35-55 peptide; equimolar concentrations of both compounds; vs MOG 35-55 peptide alone. A general note: Dividing cells build labelled thymidine or BrdU into new DNA.

For assay [1], the system named is Splenocytes or lymphocytes. Nature of the assay: Proliferation of splenocytes or lymphocytes from treated immunized mice in response to MOG 35-55 peptide. The format is in vivo, B6 mice. To be noted: mice treated with 20 mg/kg/day, compared with vehicle.
In assay [2] the test system is EAE in C57BL/6 (B6) female mice. As to the kind of experiment: Clinical course of EAE, treatment begun prior to disease onset (day 10). The format is in vivo, C57BL/6 (B6) mice. The settings on record: for mean total EAE score: vehicle control 99.
Protocol: EAE was induced in C57BL/6 (B6) female mice by immunization with 200 μg of MOG 35-55 peptide in complete Freund's adjuvant containing 400 μg of Mycobacterium tuberculosis per mouse by subcutaneous injection. Pertussis toxin was administered intraperitoneally at day 0 (25 ng per mouse) and day 2 (66 ng per mouse) after immunization. […] Mice were examined for signs of EAE daily, blinded to treatment status. EAE was scored by using a 9 point scale (0, no paralysis; 1, limp tail with minimal hind limb weakness; 2, mild hind limb weakness; 3, moderate hind limb weakness; 4, moderately severe hind limb weakness; 5, severe hind limb weakness; 6, complete hind limb paralysis; 7, hind limb paralysis with mild forelimb weakness; 8, hind limb paralysis with moderate forelimb weakness; and 9, hind limb paralysis with severe forelimb weakness).
The subject of assay [3] is EAE in B6 mice. As to the kind of experiment: Reversal of paralysis in EAE, treatment begun day 15 after onset. The format is in vivo. To be noted: 20 mg/kg daily from day 15. An excerpt:
EAE was induced in B6 mice as described in Example 2. Mice developed signs of EAE 10-12 days following immunization with MOG 35-55 peptide. […] Mice were scored daily for EAE, blinded to treatment status.

The subject of assay [4] is Mice with induced EAE. Nature of the assay: White matter tissue damage in thoracic spinal cord of EAE mice (toluidine blue). The format is in vivo. To be noted: vs vehicle. The procedure: Mice with induced EAE were deeply anesthetized with isoflurane, heparinized, and perfused with 5% gluteraldehyde, and spinal cords were dissected as described in Masliah et al., Am. J. Pathol. 142:871-882, 1993. Tissue samples were post-fixed with 1% osmium. Semithin sections (0.5 μm) were stained with toluidine blue and photographed at 25× magnification. The percentage of the spinal cord showing damage was determined in the ventrolateral and dorsal thoracic cord. Photomontages (final magnification 100×) of the entire spinal cord and areas containing damaged fibers were measured using a SummaSketch 111 (Summagraphics, Fairfield, Conn.) digitizing tablet and BIOQUANT Classic 95 software (R & M Biometrics, Nashville, Tenn.). Measurements were taken of the total area (damaged and nondamaged) and the cumulative percentage area of lesions was calculated.

Assay [5] has as its system Mice with induced EAE. Nature of the assay: Phosphorylated neurofilament (NF-P) immunostaining of spinal cord of EAE mice, dose groups. The settings on record: vehicle 24%. The class given is in vivo. The method, then: Mice with induced EAE were perfused with 4% paraformaldehyde and 1- to 2-mm lengths of spinal cord were processed for sectioning as described in Masliah et al. Spinal cord sections were blocked and stained with anti-phosphorylated NF, SMI312 (Sternberger Monoclonals, Lutherville, Md.). Following incubation in goat anti-mouse secondary antibody and incubation in mouse peroxidase-antiperoxidase, immunoreactivity was visualized with 0.05% diaminobenzidine tetrahydrochloride/0.01% hydrogen peroxide, examined by light microscopy and photographed and analyzed as described for assessing white matter tissue damage. Statistical significance was determined by using one-way ANOVA followed by Newman-Keuls multiple comparisons tests (WINKS 4.62 professional edition; Texasoft, Dallas, Tex.); significance was defined as p<0.05.

Assay [6] has as its system EAE in B6 mice. Nature of the assay: Repair of injured axons: NF-P immunostaining at day 40, treatment from day 15. The class given is in vivo. From the text:
B6 mice were immunized with MOG 35-55 peptide as described in Example 2. […] The two treatment groups were perfused on day 40 post-immunization and sections of their spinal cords were immunostained for NF-P.

In the next assay the test system is EAE in C57BL/6 mice. As to the kind of experiment: CD4 and CD11b immunostaining of spinal cord of EAE mice. The class given is in vivo. The settings on record: 20 mg/kg/day s.c. from day 15, day 34 to 40. From the text: EAE was induced in C57BL/6 mice by immunization with […] as described in Example 2. […] Mice received therapy by daily subcutaneous injection. Mice were euthanized at day 34 to 40 post-immunization by perfusion with 4% paraformaldehyde and spinal cords were removed for immunohistochemical staining and quantitative analysis. Spinal cord sections were stained with anti-CD4 (lymphocyte) or anti-CD11b (monocyte/macrophage lineage) antibodies and quantified following image capture on a laser scanning confocal microscope.

In another assay the target is CypA (Homo sapiens, UniProt P62937). To be noted: see U.S. Pat. No. 6,927,208 and WO 2006/038088; cited from earlier work.
Chain of CypA (P62937 whole entry, species assumed): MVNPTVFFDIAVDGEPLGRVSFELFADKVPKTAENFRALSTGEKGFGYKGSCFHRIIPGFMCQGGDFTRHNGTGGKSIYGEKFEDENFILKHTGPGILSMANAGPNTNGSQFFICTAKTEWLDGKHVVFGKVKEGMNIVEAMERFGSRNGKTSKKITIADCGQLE
[7] abbreviates: 20 mg/kg, vs vehicle treated mice.

The values below come from patent US8394763B2, “Cyclic undecapeptides and derivatives as multiple sclerosis therapies” (Oregon Health & Science University, priority 2007, dated 2013).

Some results are limits rather than exact numbers.

In the case of “Cyclo[L-alanyl-D-alanyl-N-methyl-L-leucyl-N-methyl-L-leucyl-N-methyl-L-valyl-(2S,3R,4R,6E)-3-hydroxy-4-methyl-2-methylamino-6-octenoyl-(2S)-2-aminobutanoyl-N-methyl-D-alanyl-N-ethyl-L-valyl-L-valyl-N-methyl-L-leucyl] [[D-MeAla]^3-[EtVal]^4-CsA]”, the “proliferative capacity of lymph node cells, MOG 35-55 peptide stimulated” value with lymph node cells was “did not significantly alter”. For the same substance, the “proliferation of splenocytes or lymphocytes in response to MOG 35-55 peptide” value in assay [1] is reported as “no differences in proliferation”. Further, the “mean total EAE score” value in assay [2] (1 mg/kg/day from day 10) is recorded as 53; in [2] (5 mg/kg/day from day 10), 25; in assay [2] (20 mg/kg/day from day 10), 12; in the assay on EAE in B6 mice [3] (vehicle 116, p=0.0006), 75. In addition, the onset of disease entry in assay [2] (setting [7]) is on record as “significantly delayed”. The “severity of peak disease” value in assay [2] (setting [7]) is listed as “reduced”. In assay [2] (all doses (1, 5, 20 mg/kg), in contrast to vehicle), the “recovery over the course of the experiment” value is “completely recovered”. The “clinical course of paralysis” value with EAE in B6 mice [3] is “progressive improvement, eventually returning to nearly normal”. Besides, the “reduction of tissue damage, dorsal thoracic cord” value in the assay with Mice with induced EAE [4] (1 mg/kg/day) was found to be 50%; in the assay with Mice with induced EAE [4] (5 mg/kg/day), 69%; with Mice with induced EAE [4] (20 mg/kg/day), 81%. The “reduction of tissue damage, ventrolateral thoracic cord” value is given as 40% with Mice with induced EAE [4] (1 mg/kg/day), 76% with Mice with induced EAE [4] (5 mg/kg/day) and 86% in the assay with Mice with induced EAE [4] (20 mg/kg/day). For the same substance, the “mean area of loss of NF-P staining, lateral/ventral thoracic spinal cord” value came to 14.5% with Mice with induced EAE [5] (1 mg/kg), 3% with Mice with induced EAE [5] (5 mg/kg) and 1.5% in the assay with Mice with induced EAE [5] (20 mg/kg). In the assay on EAE in B6 mice [6] (20 mg/kg daily from day 15, read at day 40, day 15 untreated 9%, vehicle 4.7%), the “reduced NF-P staining, share of dorsal spinal cord” value is listed as 1.7%. The “reduced NF-P staining, share of ventrolateral spinal cord” value in the assay on EAE in B6 mice [6] (20 mg/kg daily from day 15, read at day 40, day 15 untreated 14%, vehicle 20%) is given as 7%. Moreover, in the assay with EAE in B6 mice [6] (20 mg/kg daily, day 40 vs day 15), the “improvement in expression of NF-P within axons” value is listed as at least 50%. Moreover, the “percentage area stained by anti-CD4, spinal cord” value in the assay on EAE in C57BL/6 mice (no treatment 0.86%, vehicle 0.74%, not significant) amounted to 0.61%. Besides, the “CD11b cells, percentage of white matter” value in the assay on EAE in C57BL/6 mice (no treatment 6.64%, vehicle 5.83%, p=0.05 vs vehicle) is 3.94%.

For the substance [EtPhe(4-CH2PO(OMe)2)]^4-CsA, the “apparent Ki for CypA activity compared with CsA” value at CypA is “less than the Ki of CsA”.
